# Reference: patent US20220362386A1, “LIQUID COMPOSITIONS COMPRISING A LEVODOPA AMINO ACID CONJUGATE AND USES THEREOF” (NeuroDerm, Ltd., priority 2019, published 2022)
# Structures can show the parent of a compound that is named as a salt. Where two headings read alike, the source gives them in different places. Non-standard residues stand in square brackets, D forms with d. Residues, ends and D or L forms follow the SMILES beside them. Dopa = N[C@@H](Cc1ccc(O)c(O)c1)C(=O)O
# How the values were obtained:
# [1] = tested on: Caco-2 cells; experiment: In-vitro absorption, Caco-2 A-B permeability; format: in vitro ADME, human; details: Caco-2 A-B; both with and without verapamil
# Experimental: Conditions may be adjusted when necessary.
# D denotes donor and R is receiver. […] V is the volume of the donor or receiver.
# The test was performed with and without verapamil, which is a permeation inhibitor, and the results are presented in Tables 22 (without verapamil) and 34 (with verapamil).
# [2] = Stability observation of the solubility solutions at 25° C. (visual inspection for precipitants); format: physicochemical; details: 0.75% CD solution
# Experimental: The volume of the solution in the bottle was adjusted to 5 ml, either by adding solvent, or be removing any residual solution, after which the bottle was tightly closed and left at 25° C. for stability observation. […] It is further noted that throughout this document, unless mentioned otherwise, the stability was measured using the manual visual inspection Bosch apparatus MIH DX, at a magnification of ×1.75.
# [3] = Human liver S9 stability test; format: in vitro ADME; details: substrate 10 μM, S9 protein 0.2 mg/mL
# Experimental: The stability of several LDAA compounds, in their TFA salt form, in human liver S9 was tested using commercially available liver S9. The substrate concentration was 10 μM, the S9 protein concentration was 0.2 mg/mL, and the incubation time 0, 5, 15, 30 and 60 minutes.
# The results are described in Table 18, wherein the results describe the Ke, i.e., the slope of the percentage decrease of the remaining amount of the compound, measured at each of the above time points, such that the higher the Ke the faster the metabolism.
# [4] = physchem; format: physicochemical; details: for solubility thermodynamic: 25 °C, thermodynamic from solid, read-out: LD-Lys TFA salt concentration
# [5] = solvent 0.75% CD solution, pH 6.5, precipitated
# [6] = solvent 0.75% CD solution, pH 7.4 (line r20)
# [7] = solvent 0.75% CD solution, pH 7.4, precipitated (line r14)
# [8] = solvent […] CD solution, pH 8.36
structure (smiles),measurement,setting,value
"N[C@@H](CSC[C@H](NC(=O)[C@@H](N)Cc1ccc(O)c(O)c1)C(=O)O)C(=O)O (single isomer, unassigned; peak 2) [LD-LA2 TFA salt, Levodopa Lanthionine Peak 2 TFA Salt]",mean permeability compared with the other compounds (in words),[1],highest mean permeability
"NCCCC[C@H](NC(=O)[C@@H](N)Cc1ccc(O)c(O)c1)C(=O)O [LD-Lys TFA salt, Levodopa Lysine TFA Salt] (H-[Dopa]-Lys-OH)",Stability,"[2]; pH 6.5, 250 mg/ml salt",Precipitated* (precipitated within 12 hours)
same,Stability,"[2]; pH 7.4, 250 mg/ml salt",Precipitated* (precipitated within 12 hours)
same,Ke,"[3]; slope of the percentage decrease of remaining compound, 0-60 minutes",0.0788
same,metabolism in human liver S9 (in words),[3],rapidly metabolized
same,Appearance,"[4]; 0.1% NaBis in WFI, pH 7.0, 520 mg/ml salt",clear
same,Appearance,"[4]; 0.75% CD solution, pH 6.5, 250 mg/ml salt",precipitated
same,Appearance,"[4]; 0.75% CD solution, pH 7.4, 205 mg/ml salt",clear
same,Appearance,"[4]; 0.75% CD solution, pH 7.4, 250 mg/ml salt",precipitated
same,solubility thermodynamic,"[4]; aqueous buffer, solvent 0.1% NaBis in WFI, pH 7.0",520 mg/mL
same,solubility thermodynamic,"[4]; water, solvent WFI, pH 1.86",770 mg/mL
same,Appearance,"[4]; WFI, pH 1.86, 770 mg/ml salt",clear
same,Appearance,"[4]; WFI, pH 7.1, 600 mg/ml salt",clear
same,Appearance,"[4]; […] CD solution, pH 8.36, 180 mg/ml salt",clear
same,LD-Lys free base Concentration,"[4]; solvent 0.1% NaBis in WFI, pH 7.0",310 mg/mL
same,LD-Lys TFA salt concentration,[4]; [5],250 mg/mL
same,LD-Lys free base Concentration,[4]; [5],150 mg/mL
same,LD-Lys TFA salt concentration,[4]; [6],205 mg/mL
same,LD-Lys free base Concentration,[4]; [6],120 mg/mL
same,LD-Lys TFA salt concentration,[4]; [7],250 mg/mL
same,LD-Lys free base Concentration,[4]; [7],150 mg/mL
same,LD-Lys free base Concentration,"[4]; solvent WFI, pH 1.86",450 mg/mL
same,LD-Lys TFA salt concentration,"[4]; solvent WFI, pH 7.1",600 mg/mL
same,LD-Lys free base Concentration,"[4]; solvent WFI, pH 7.1",350 mg/mL
same,LD-Lys TFA salt concentration,[4]; [8],180 mg/mL
same,LD-Lys free base Concentration,[4]; [8],110 mg/mL
